# Measured values published in publication PMC8134453.
# “Also recorded” adds a separate entry of the source. Like-named read-outs stand apart in the source and are kept apart here.
# How the values were obtained:
# Jack bean (JB) urease [1] = target: T1, Jack bean (JB) urease (Canavalia ensiformis, UniProt P07374); test: Urease inhibition, modified Berthelot spectrophotometric method; type: biochemical
# T1 construct: purchased Sigma-Aldrich (USA)
# Method: All used material and JB urease (EC 3.5.1.5) were purchased from Sigma–Aldrich (USA). Potassium phosphate buffer (PPB) solution with concentration 100 mM and pH = 7.4 was prepared in distilled water. […] The enzymatic reactions were performed in PPB solution which reach to the 985 μL by adding urea (850 μL) and the synthesized compound (100 μL, 0–10 mg/mL). Then, urease (15 μL) was added and the concentration of liberated ammonia was measured after 60 min. The corresponding concentration of ammonia was determined by addition of the incubated solution (100 μL) to the mixture of 500 μL of solution I (5.0 g phenol and 25.0 mg sodium nitroprusside in 500 mL water) and 500 μL of solution II (2.5 g sodium hydroxide and 4.2 mL sodium hypochlorite (5% chlorine) in 500 mL water) which was incubated at 37 °C for 30 min. The absorbance was obtained by measuring indophenols. The activity of uninhibited JB urease was considered as the control activity of 100%. The inhibition assays were conducted according to this formula: I (%) = [1 − (T/C)] × 100; where I (%) is the enzyme inhibition, T (test) is the absorbance of the analyzed compounds in the presence of urease solution, and C (control) is the absorbance of the solvent in the presence of urease solution. Data were expressed as mean ± […] and run in triplicate. […] Thiourea and hydroxyurea were used as the standard inhibitors for urease.
# Jack bean (JB) urease [2] = target: T1, Jack bean (JB) urease; test: Urease kinetic study (Lineweaver–Burk plots); type: biochemical
# Method: The inhibition mode and Ki value were determined by Lineweaver–Burk plots and secondary re-plotting of the mentioned plots, respectively.
# All used material and JB urease (EC 3.5.1.5) were purchased from Sigma–Aldrich (USA). Potassium phosphate buffer (PPB) solution with concentration 100 mM and pH = 7.4 was prepared in distilled water. […] The enzymatic reactions were performed in PPB solution which reach to the 985 μL by adding urea (850 μL) and the synthesized compound (100 μL, 0–10 mg/mL). Then, urease (15 μL) was added and the concentration of liberated ammonia was measured after 60 min. The corresponding concentration of ammonia was determined by addition of the incubated solution (100 μL) to the mixture of 500 μL of solution I (5.0 g phenol and 25.0 mg sodium nitroprusside in 500 mL water) and 500 μL of solution II (2.5 g sodium hydroxide and 4.2 mL sodium hypochlorite (5% chlorine) in 500 mL water) which was incubated at 37 °C for 30 min. The absorbance was obtained by measuring indophenols. The activity of uninhibited JB urease was considered as the control activity of 100%. The inhibition assays were conducted according to this formula: I (%) = [1 − (T/C)] × 100; where I (%) is the enzyme inhibition, T (test) is the absorbance of the analyzed compounds in the presence of urease solution, and C (control) is the absorbance of the solvent in the presence of urease solution. Data were expressed as mean ± standard error (SD) and run in triplicate. […] Thiourea and hydroxyurea were used as the standard inhibitors for urease.
# [3] = no reference given; cited from earlier work
# [4] = Jack bean urease, mean ± standard error of the mean, at least three experiments, read-out: IC50 against urease
# T1 sequence (P07374 whole entry, looked up): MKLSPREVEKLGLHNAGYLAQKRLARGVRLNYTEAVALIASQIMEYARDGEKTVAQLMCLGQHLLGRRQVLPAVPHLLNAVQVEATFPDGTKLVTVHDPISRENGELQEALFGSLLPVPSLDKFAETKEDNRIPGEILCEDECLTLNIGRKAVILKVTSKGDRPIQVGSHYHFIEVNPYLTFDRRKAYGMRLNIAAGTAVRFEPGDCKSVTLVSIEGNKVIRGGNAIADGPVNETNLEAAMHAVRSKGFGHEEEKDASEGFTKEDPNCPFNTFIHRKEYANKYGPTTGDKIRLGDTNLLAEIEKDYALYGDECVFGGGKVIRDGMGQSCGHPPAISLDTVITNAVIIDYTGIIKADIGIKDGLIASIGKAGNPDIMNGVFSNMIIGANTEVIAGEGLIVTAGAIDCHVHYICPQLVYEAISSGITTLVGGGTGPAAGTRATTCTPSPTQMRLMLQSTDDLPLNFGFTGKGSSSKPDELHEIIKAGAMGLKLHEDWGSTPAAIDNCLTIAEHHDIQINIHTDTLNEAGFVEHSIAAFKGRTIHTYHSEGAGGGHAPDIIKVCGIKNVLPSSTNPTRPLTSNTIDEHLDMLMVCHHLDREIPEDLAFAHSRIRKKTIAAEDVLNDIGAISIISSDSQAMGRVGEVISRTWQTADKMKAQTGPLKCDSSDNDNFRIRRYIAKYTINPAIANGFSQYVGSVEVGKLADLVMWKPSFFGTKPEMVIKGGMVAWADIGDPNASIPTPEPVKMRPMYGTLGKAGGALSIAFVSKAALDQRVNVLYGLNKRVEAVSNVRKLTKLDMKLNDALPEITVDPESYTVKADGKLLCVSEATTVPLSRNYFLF
Structure (SMILES),IC50 (Jack bean (JB) urease [1]; [4]) [µM],also measured
"CN1C(=O)C(=CN/N=C/c2ccc(O)cc2O)C(=O)N(C)C1=O [Compound 7c, (E)-5-((2-(2,4-dihydroxybenzylidene)hydrazinyl)methylene)-1,3-dimethylpyrimidine-2,4,6(1H,3H,5H)-trione]",1.2 ± 0.05,–
"CN1C(=O)C(=CN/N=C/c2ccc([N+](=O)[O-])cc2)C(=O)N(C)C1=O [Compound 7i, (E)-1,3-dimethyl-5-((2-(4-nitrobenzylidene)hydrazinyl)methylene)pyrimidine-2,4,6(1H,3H,5H)-trione]",1.31 ± 0.09,decrease of inhibitory activity relative to 2-nitro derivative 7h (Jack bean (JB) urease [1]; urease IC50 compared with 7h): about two
"COc1cc(/C=N/NC=C2C(=O)N(C)C(=O)N(C)C2=O)cc(OC)c1OC [Compound 7d, (E)-1,3-dimethyl-5-((2-(3,4,5-trimethoxybenzylidene)hydrazinyl)methylene)pyrimidine-2,4,6(1H,3H,5H)-trione]",2.53 ± 0.11,–
"CN1C(=O)C(=CN/N=C/c2cc(Cl)ccc2[N+](=O)[O-])C(=O)N(C)C1=O [Compound 7l, (E)-5-((2-(5-chloro-2-nitrobenzylidene)hydrazinyl)methylene)-1,3-dimethylpyrimidine-2,4,6(1H,3H,5H)-trione]",1.34 ± 0.12,–
"CN1C(=O)C(=CN/N=C/c2ccccc2[N+](=O)[O-])C(=O)N(C)C1=O [Compound 7h, (E)-1,3-dimethyl-5-((2-(2-nitrobenzylidene)hydrazinyl)methylene)pyrimidine-2,4,6(1H,3H,5H)-trione]",–,IC50 (Jack bean (JB) urease [1]): 0.61 ± 0.06 µM; activity fold superior to parent phenyl derivative 7a (Jack bean (JB) urease [1]; ratio of urease IC50 values): 7.2 fold; times more potent than thiourea (Jack bean (JB) urease [1]; ratio of urease IC50 values): 37.7 times; Ki (Jack bean (JB) urease [2]): 0.82 µM; inhibition mode (Jack bean (JB) urease [2]; Lineweaver–Burk plot): mixed-type inhibitor; also recorded: mix-mode inhibitor; melting point: 178 to 180 °C
"CN1C(=O)C(=CN/N=C/c2cccc(Cl)c2Cl)C(=O)N(C)C1=O [Compound 7j, (E)-5-((2-(2,3-dichlorobenzylidene)hydrazinyl)methylene)-1,3-dimethylpyrimidine-2,4,6(1H,3H,5H)-trione]",4.52 ± 0.31,–
"CN1C(=O)C(=CN/N=C/c2cccc(Oc3ccccc3)c2)C(=O)N(C)C1=O [Compound 7e, (E)-1,3-dimethyl-5-((2-(3-phenoxybenzylidene)hydrazinyl)methylene)pyrimidine-2,4,6(1H,3H,5H)-trione]",2.85 ± 0.23,–
"CN1C(=O)C(=CN/N=C/c2cccc3ccccc23)C(=O)N(C)C1=O [Compound 7o, (E)-1,3-dimethyl-5-((2-(naphthalen-1-ylmethylene)hydrazinyl)methylene)pyrimidine-2,4,6(1H,3H,5H)-trione]",–,IC50 (Jack bean (JB) urease [1]): 1.94 ± 0.22 µM
"CN1C(=O)C(=CN/N=C/c2cccc(Br)c2)C(=O)N(C)C1=O [Compound 7g, (E)-5-((2-(3-bromobenzylidene)hydrazinyl)methylene)-1,3-dimethylpyrimidine-2,4,6(1H,3H,5H)-trione]",3.62 ± 0.19,–
"CN1C(=O)C(=CN/N=C/c2ccc(Cl)s2)C(=O)N(C)C1=O [Compound 7n, (E)-5-((2-((5-chlorothiophen-2-yl)methylene)hydrazinyl)methylene)-1,3-dimethylpyrimidine-2,4,6(1H,3H,5H)-trione]",4.56 ± 0.18,–
"CN1C(=O)C(=CN/N=C/c2ccccc2O)C(=O)N(C)C1=O [Compound 7b, (E)-5-((2-(2-hydroxybenzylidene)hydrazinyl)methylene)-1,3-dimethylpyrimidine-2,4,6(1H,3H,5H)-trione]",3.09 ± 0.13,–
"NC(=O)NO [Hydroxyurea, reference compound]",100 ± 0.15,experimental solubility [3]: 100 mg/mL
"CN1C(=O)C(=CN/N=C/c2cccs2)C(=O)N(C)C1=O [Compound 7m, (E)-1,3-dimethyl-5-((2-(thiophen-2-ylmethylene)hydrazinyl)methylene)pyrimidine2,4,6(1H,3H,5H)-trione]",0.86 ± 0.08,–
"CN1C(=O)C(=CN/N=C/c2ccc(Cl)cc2)C(=O)N(C)C1=O [Compound 7f, (E)-5-((2-(4-chlorobenzylidene)hydrazinyl)methylene)-1,3-dimethylpyrimidine-2,4,6(1H,3H,5H)-trione]",3.56 ± 0.16,–
"CN1C(=O)C(=CN/N=C/c2cc([N+](=O)[O-])ccc2Cl)C(=O)N(C)C1=O [Compound 7k, (E)-5-((2-(2-chloro-5-nitrobenzylidene)hydrazinyl)methylene)-1,3-dimethylpyrimidine 2,4,6(1H,3H,5H)-trione]",3.94 ± 0.25,–
"NC(N)=S [Thiourea, reference compound]",23 ± 1.7,–
"CN1C(=O)C(=CN/N=C/c2ccccc2)C(=O)N(C)C1=O [Compound 7a, (E)-5-((2-benzylidenehydrazinyl)methylene)-1,3-dimethylpyrimidine-2,4,6(1H,3H,5H)-trione]",4.43 ± 0.21,–
